One assay addresses T1, delF508-CFTR (Homo sapiens, UniProt P13569, DEL508-508).
T1 construct: functional activity of the CFTR channel (Chloride ion transport) in patient derived primary human bronchial epithelial cells; host or cells: patient-derived primary human bronchial epithelial cells (HBECs), delF508-CFTR
The assay can be described thus: delF508-CFTR functional activity in primary human bronchial epithelial cells (HBECs), Multi-Transepithelial Clamp Circuit (MTECC-24) assay, equivalent short circuit current. The assay is classed as cell-based. The conditions noted are these: primary CF HBECs; for MTECC24 CFHBEC-Amax %: relative to reference combination 2 μM 3-(6-(1-(2,2-difluorobenzo[d][1,3]dioxol-5-yl)cyclopropane-1-carboxamido)-3-methylpyridin-2-yl)benzoic acid (24 h) + 0.5 μM N-(2,4-di-tert-butyl-5-hydroxyphenyl)-4-oxo-1,4-dihydroquinoline-3-carboxamide; for EC50: test compound added 24 h before assay, potentiator (S)-3-amino-6-methoxy-N-(3,3,3-trifluoro-2-hydroxy-2-methylpropyl)-5-(trifluoromethyl)picolinamide present at assay, mean of at least two replicates, read-out: MTECC24 CFHBEC-EC50. The text has this:
Measurement of delF508-CFTR Functional Activity in Primary Human Bronchial Epithelial Cells (HBECs) Using Multi-Transepithelial Clamp Circuit (MTECC-24) Assay
This assay measures the functional activity of the CFTR channel (Chloride ion transport) in patient derived primary human bronchial epithelial cells with forskolin activation and in the presence of the CFTR corrector wherein the corrector is a compound of the invention and the potentiator is (S)-3-amino-6-methoxy-N-(3,3,3-trifluoro-2-hydroxy-2-methylpropyl)-5-(trifluoromethyl)picolinamide.
Primary human delF508-CFTR bronchial epithelial cells were purchased from Asterand and cultured according to previously established methods (Fulcher et al. (2005) Methods Mol Med 107: 183-206). Briefly, vendor supplied cells were rapidly defrosted and added to a T175 flask in 50 mL growth media (Lonza BEBM media with Lonza BEGM singlequots). Media was replaced after 24 h and then cells were fed every other day until cells were 80-90% confluent, at which point cells were cryopreserved. These P1 vials were thawed at 37° C. as needed and added to T175 flasks in 50 mL growth media at 5×10^5 cells/flask. Media was replaced after 24 h, and then cells were fed every other day until 80-90% confluent. Cells were lifted with 5 mL Accutase at 37° C. for 5 minutes, centrifuged at 1000 rpms for 5 min (300 g), and resuspended in differentiation media (50% BEBM in DMEM, BEGM singlequots, all trans retinoic acid (5×10·8M)). Cells were then counted and cell suspension was added to collagen coated inserts at 3×10^4 cells/insert in 0.15 mL with 0.5 mL differentiation media on the basolateral side.
Apical and basolateral media were replaced on alternate days, and following day 7 (or when confluent plus 2 days), air liquid interface was established for approximately two weeks by removal of apical media. One day prior to use on the MTECC24 system (EP-Devices, EP Design, Belgium), 0.15 mL of warmed (37° C.) PBS was added to the apical surface of the cultures and returned to humidifier (37° C., 5% CO2 incubator) for 30 min before aspirating the apical surface to remove any mucus.
Compound treatments were then prepared. Compound dilutions, typically a 10 point concentration response with 1 in 3 dilution steps, were made in 100% DMSO before dilution 1 in 1000 into differentiation medium with a final DMSO concentration of 0.1% or 0.2% for the study. Compound containing medium was then transferred into the wells of a 24 well plate at 0.5 mL per well and warmed for 30 min in a 37° C. incubator prior to transferring washed inserts into the compound containing plates. Cells were incubated in compound containing medium (basolateral only) for 24 h prior to measurement in the MTECC24 system.
Following 24 hr treatment, compound dilutions were prepared again, diluted 1 in 1000 into 37° C. assay medium (F-12 Coon's modified, 20 mM HEPES pH7.4 with TRIS Base, No FCS or bicarbonate). Cells which were treated for 24 h with test compound were then transferred into plates containing 0.75 mL compound treatment in assay medium (basolateral) and 0.25 mL of the compound containing assay medium was added to the apical surface. The plates were then transferred to the heated plate compartments of the MTECC24 system for 45 min prior to measurements (this can also be done in a non-CO2 37° C. humidified incubator). Basolateral temperature should not exceed 36.5° C. and apical temperature should be approximately 35.5° C.
Modulators were added sequentially as follows while the MTECC24 instrument recorded the equivalent short circuit current (Ieq)
Prior to dilution into F-12 medium the stocks are as follows: Amiloride stock is 10 mM in H2O
Forskolin Stock is 10 mM in 100% DMSO
(S)-3-amino-6-methoxy-N-(3,3,3-trifluoro-2-hydroxy-2-methylpropyl)-5-(trifluoromethyl)picolinamide is 0.5 mM stock in 100% DMSO INH-172 (4-[[4-Oxo-2-thioxo-3-[3-trifluoromethyl)phenyl]-5-thiazolidinylidene]methyl]benzoic acid) stock is 30 mM in 100% DMSO […]

The target of another assay is T2, delF508-CFTR-HRP (Homo sapiens, UniProt P13569, DEL508-508).
T2 construct: expressed in transfected cells
T2 sequence (P13569 with tags, fused parts or gaps DEL508-508): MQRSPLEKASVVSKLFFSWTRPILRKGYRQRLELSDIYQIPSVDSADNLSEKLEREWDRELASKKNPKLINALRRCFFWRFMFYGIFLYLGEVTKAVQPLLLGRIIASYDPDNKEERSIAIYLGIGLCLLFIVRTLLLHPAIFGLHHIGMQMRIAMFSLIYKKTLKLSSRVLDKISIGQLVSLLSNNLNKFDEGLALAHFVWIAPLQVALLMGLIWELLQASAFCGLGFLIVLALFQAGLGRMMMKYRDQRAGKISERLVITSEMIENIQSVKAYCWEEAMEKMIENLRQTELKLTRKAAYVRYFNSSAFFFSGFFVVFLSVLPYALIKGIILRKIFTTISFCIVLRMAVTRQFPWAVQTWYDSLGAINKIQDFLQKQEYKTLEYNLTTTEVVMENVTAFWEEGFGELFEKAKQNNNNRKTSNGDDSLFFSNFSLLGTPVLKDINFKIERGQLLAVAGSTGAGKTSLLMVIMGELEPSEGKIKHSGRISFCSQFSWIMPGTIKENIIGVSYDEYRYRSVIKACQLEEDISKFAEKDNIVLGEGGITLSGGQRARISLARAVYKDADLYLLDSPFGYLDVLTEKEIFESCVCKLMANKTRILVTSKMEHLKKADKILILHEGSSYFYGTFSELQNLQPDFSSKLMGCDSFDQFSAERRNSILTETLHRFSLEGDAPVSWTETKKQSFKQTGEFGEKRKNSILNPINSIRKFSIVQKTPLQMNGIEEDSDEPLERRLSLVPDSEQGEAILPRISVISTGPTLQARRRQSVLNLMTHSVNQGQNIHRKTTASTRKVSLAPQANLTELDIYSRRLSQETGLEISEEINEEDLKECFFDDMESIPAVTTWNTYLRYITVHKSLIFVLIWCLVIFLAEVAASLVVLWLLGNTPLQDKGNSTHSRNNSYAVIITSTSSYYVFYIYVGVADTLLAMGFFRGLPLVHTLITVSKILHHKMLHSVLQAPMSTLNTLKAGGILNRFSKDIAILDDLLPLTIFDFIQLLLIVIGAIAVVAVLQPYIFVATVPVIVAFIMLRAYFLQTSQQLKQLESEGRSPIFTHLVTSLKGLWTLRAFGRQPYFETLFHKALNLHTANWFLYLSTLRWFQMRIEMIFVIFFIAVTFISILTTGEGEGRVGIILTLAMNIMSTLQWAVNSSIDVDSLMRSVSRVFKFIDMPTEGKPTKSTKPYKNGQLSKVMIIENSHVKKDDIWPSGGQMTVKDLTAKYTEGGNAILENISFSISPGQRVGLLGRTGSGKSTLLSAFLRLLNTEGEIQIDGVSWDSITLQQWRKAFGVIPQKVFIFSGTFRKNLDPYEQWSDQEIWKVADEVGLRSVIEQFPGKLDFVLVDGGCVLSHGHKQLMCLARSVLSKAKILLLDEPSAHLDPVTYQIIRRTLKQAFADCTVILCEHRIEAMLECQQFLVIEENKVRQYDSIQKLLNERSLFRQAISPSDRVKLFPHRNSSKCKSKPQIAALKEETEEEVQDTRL
As to the kind of experiment: Measurement of delF508-CFTR-HRP surface expression in CFBE41o- cells (HRP luminescence).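 On DelF508-CFTR-HRP Amax %: percent efficacy relative to a reference CFTR corrector compound.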 The conditions noted are these: for Emax: CFBE41o-, read-out: DelF508-CFTR-HRP Amax %; for EC50: mean of at least two replicates. The class given is cell-based. The method in brief: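 Stably transfected CFBE41o- cells carrying HRP in the fourth extracellular loop of delF508-CFTR, induced with 500 ng/mL doxycycline for 48 h, then compound-treated 24 h at 37° C (10-point, 3-fold, top 10 μM). Surface HRP detected by luminescent substrate; EC50 from logistic fit, triplicates, normalized to lowest-concentration median.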

T1 sequence (P13569 with tags, fused parts or gaps DEL508-508): as above

Regarding `Cc1ccc(C2CCCCC2)c(OC2(C(=O)NS(=O)(=O)c3cccc(N4CC5(CN(C(=O)OC(C)(C)C)C5)C4)n3)CC2)c1` [Example 2-29, Tert-butyl 6-(6-(N-(1-(2-cyclohexyl-5-methylphenoxy)cyclopropanecarbonyl)sulfamoyl)pyridin-2-yl)-2,6-diazaspiro[3.3]heptane-2-carboxylate], on delF508-CFTR, the “MTECC24 CFHBEC-Amax %” value is 76% and the EC50 (commonly the concentration giving half of the maximal effect) was 63 nM. On delF508-CFTR-HRP, the Emax turned out to be 626% and the EC50 came to 870 nM.

`C[C@@H]1CN(c2cccc(S(=O)(=O)NC(=O)C3(Oc4cc(Cl)ccc4C4CC5(CCC5)C4)CC3)n2)CCO1` [Example 7-13, (R)-1-(5-Chloro-2-(spiro[3.3]heptan-2-yl)phenoxy)-N-((6-(2-methylmorpholino)pyridin-2-yl)sulfonyl)cyclopropane-1-carboxamide]: at delF508-CFTR, the “MTECC24 CFHBEC-Amax %” value is 81.1% and the EC50 came out at 213 nM. Moreover, at delF508-CFTR-HRP, the Emax is 543% and it took 1290 nM to reach a half-maximal effect (EC50).

In the case of `Cc1ccc(C2CCCCC2)c(OC2(C(=O)NS(=O)(=O)c3cccc(N4CCN(C(=O)OC(C)(C)C)CC4)n3)CC2)c1` [Example 2-34, Tert-butyl 4-(6-(N-(1-(2-cyclohexyl-5-methylphenoxy)cyclopropanecarbonyl)sulfamoyl)pyridin-2-yl)piperazine-1-carboxylate], at delF508-CFTR, the “MTECC24 CFHBEC-Amax %” value was found to be 57% and the EC50 stood at 15 nM. On delF508-CFTR-HRP, the Emax is 366% and the EC50 was found to be 1100 nM.

`Cc1ccc(C2CCC(F)(F)CC2)c(OC2(C(=O)NS(=O)(=O)c3cccc(N)n3)CC2)c1` [Example 1-4, N-((6-Aminopyridin-2-yl)sulfonyl)-1-(2-(4,4-difluorocyclohexyl)-5-methylphenoxy)cyclopropane-1-carboxamide]: at delF508-CFTR, the “MTECC24 CFHBEC-Amax %” value was found to be 59% and the EC50 turned out to be 437 nM. Moreover, at delF508-CFTR-HRP, the Emax is 260% and it took 3970 nM to reach a half-maximal effect (EC50).

Take `Cc1ccc(C2(C(F)(F)F)CC2)c(OC2(C(=O)NS(=O)(=O)c3cccc(N)n3)CCCC2)c1` [Example 1-8, N-((6-Aminopyridin-2-yl)sulfonyl)-1-(5-methyl-2-(1-(trifluoromethyl)cyclopropyl)phenoxy)cyclopentane-1-carboxamide]: at delF508-CFTR, the “MTECC24 CFHBEC-Amax %” value stood at 46% and the EC50 stood at 6 nM. Moreover, on delF508-CFTR-HRP, the Emax amounted to 165% and the EC50 stood at 2380 nM.

For the compound `Cc1ccc(C2CCCC(F)(F)C2)c(OC2(C(=O)NS(=O)(=O)c3cccc(N)n3)CC2)c1` (centres unmarked) [Example 1-5, N-((6-Aminopyridin-2-yl)sulfonyl)-1-(2-(3,3-difluorocyclohexyl)-5-methylphenoxy)cyclopropane-1-carboxamide], at delF508-CFTR, the “MTECC24 CFHBEC-Amax %” value turned out to be 94% and the EC50 was 312 nM. Moreover, on delF508-CFTR-HRP, the Emax was found to be 179% and a half-maximal effect (EC50) was put at 3960 nM.

As for `C[C@]1(O)CCN(c2cccc(S(=O)(=O)NC(=O)C3(Oc4cc(Cl)ccc4N4CC5(CCCCC5)C4)CC3)n2)C1` [Example 9-7, (S)-1-(5-Chloro-2-(2-azaspiro[3.5]nonan-2-yl)phenoxy)-N-((6-(3-hydroxy-3-methylpyrrolidin-1-yl)pyridin-2-yl)sulfonyl)cyclopropanecarboxamide], on delF508-CFTR, the “MTECC24 CFHBEC-Amax %” value came to 131.1% and the EC50 is 123 nM. In addition, on delF508-CFTR-HRP, the Emax turned out to be 472% and the midpoint of the response, the EC50, lay at 580 nM.

`C[C@@H](CO)Nc1cccc(S(=O)(=O)NC(=O)C2(Oc3cc(F)ccc3C3CCC(F)(F)CC3)CC2)n1` [Example 3-2]: at delF508-CFTR, the “MTECC24 CFHBEC-Amax %” value came to 48% and the 50% effective concentration (EC50) was determined as 371 nM. At delF508-CFTR-HRP, the Emax turned out to be 172% and the response was half-maximal at 4420 nM (EC50).

On to `Cc1ccc(C2CCCCC2)c(OC2(C(=O)NS(=O)(=O)c3cccc(N4CCC(N)(C(F)(F)F)CC4)n3)CC2)c1` [Example 2-17, N-((6-(4-Amino-4-(trifluoromethyl)piperidin-1-yl)pyridin-2-yl)sulfonyl)-1-(2-cyclohexyl-5-methylphenoxy)cyclopropanecarboxamide], for which, on delF508-CFTR, the “MTECC24 CFHBEC-Amax %” value is recorded as 90% and the EC50 worked out at 4 nM. Also, on delF508-CFTR-HRP, the Emax was determined as 503% and it took 730 nM to reach a half-maximal effect (EC50).

`Cc1ccc(C2CCCCC2)c(OC2(C(=O)NS(=O)(=O)c3cccc(N4CCCC(NC(=O)OC(C)(C)C)C4)n3)CC2)c1` (centres unmarked) [Example 2-12, Tert-butyl (1-(6-(N-(1-(2-cyclohexyl-5-methylphenoxy)cyclopropanecarbonyl)sulfamoyl)pyridin-2-yl)piperidin-3-yl)carbamate]: at delF508-CFTR, the “MTECC24 CFHBEC-Amax %” value is on record as 78% and the EC50 was 8 nM. For the same compound, on delF508-CFTR-HRP, the Emax was 604% and the EC50 stood at 1530 nM.

For `C[C@H](O)CNc1cccc(S(=O)(=O)NC(=O)C2(Oc3cc(Cl)ccc3C3CC3)CC2)n1` [Example 4-15, (S)-1-(5-Chloro-2-cyclopropylphenoxy)-N-((6-((2-hydroxypropyl)amino)pyridin-2-yl)sulfonyl)cyclopropane-1-carboxamide], on delF508-CFTR, the “MTECC24 CFHBEC-Amax %” value stood at 35% and the EC50 came out at 69 nM. Besides, on delF508-CFTR-HRP, the Emax worked out at 114% and the response was half-maximal at 4160 nM (EC50).

Take `Cc1ccc(C2CCCCC2)c(OC2(C(=O)NS(=O)(=O)c3cccc(N4CCC(C)(N)C4)n3)CC2)c1` (centres unmarked) [Example 2-27, N-((6-(3-Amino-3-methylpyrrolidin-1-yl)pyridin-2-yl)sulfonyl)-1-(2-cyclohexyl-5-methylphenoxy)cyclopropanecarboxamide]: at delF508-CFTR, the “MTECC24 CFHBEC-Amax %” value came out at 104% and the EC50 was found to be 70 nM. Also, on delF508-CFTR-HRP, the Emax was 181% and the EC50 was determined as 2580 nM.

Regarding `Cc1ccc(C2CCCCC2)c(OC2(C(=O)NS(=O)(=O)c3cccc(N4CC(C)(NC(=O)OC(C)(C)C)C4)n3)CC2)c1` [Example 2-50, Tert-butyl (1-(6-(N-(1-(2-cyclohexyl-5-methylphenoxy)cyclopropane-1-carbonyl)sulfamoyl)pyridin-2-yl)-3-methylazetidin-3-yl)carbamate], at delF508-CFTR, the “MTECC24 CFHBEC-Amax %” value is 93% and the EC50 worked out at 4 nM. At delF508-CFTR-HRP, the Emax came to 628% and the EC50 came to 1270 nM.

Consider `Cc1ccc(OC2CCCCCC2)c(OC2(C(=O)NS(=O)(=O)c3cccc(N4CC[C@H](O)C4)n3)CC2)c1` [Example 6-6, (S)-1-(2-(cycloheptyloxy)-5-methylphenoxy)-N-((6-(3-hydroxypyrrolidin-1-yl)pyridin-2-yl)sulfonyl)cyclopropanecarboxamide], for which, at delF508-CFTR, the “MTECC24 CFHBEC-Amax %” value is listed as 110.6% and the EC50 came out at 668 nM. At delF508-CFTR-HRP, the Emax came to 462% and the response was half-maximal at 2070 nM (EC50).

(Values after US20220033407A1, “N-(pyridin-2-ylsulfonyl)cyclopropanecarboxamide Derivatives and their Use in the Treatment of Disease” (NOVARTIS AG, priority 2018, published 2022).)
